Reference: patent CN116139126A, “表没食子儿茶素-3-没食子酸酯在制备嗜水气单胞菌的群体感应抑制剂中的应用” (Yueyang Yumeikang Bio Tech Co ltd, priority 2023, dated 2023)
In brackets after ≈: the same amount, converted by molar mass. Entries after “also recorded” stand apart in the source; their conditions may differ. Read-outs that look alike come from different tables or passages of the source.

Experiments:
[1] = tested on: Aeromonas hydrophila (嗜水气单胞菌); assay: microbe, parasite or virus in culture; details: 18 h
[2] = tested on: Aeromonas hydrophila (嗜水气单胞菌); assay: Protection of zebrafish infected with A. hydrophila (survival); format: in vivo, Aeromonas hydrophila AH08; zebrafish; details: for time of death of the first zebrafish: injected after intraperitoneal infection; for survival rate: model group 0
[3] = tested on: Aeromonas hydrophila (嗜水气单胞菌); assay: Growth curve of A. hydrophila; format: cell-based, Aeromonas hydrophila AH08
[4] = tested on: Aeromonas hydrophila (嗜水气单胞菌); assay: MIC/MBC by twofold dilution in TSB; format: cell-based, Aeromonas hydrophila AH08; details: 30 °C, 24 h; for MIC: TSB
[5] = tested on: Aeromonas hydrophila (嗜水气单胞菌); details: swarming and swimming, 64-256 μg/mL
[6] = tested on: pro-inflammatory cytokine genes IL-1β, IL-8, IL-6, TNF-α (促炎细胞因子基因); assay: Pro-inflammatory cytokine gene expression in zebrafish intestine (qRT-PCR); details: 6 h after infection
[7] = tested on: Aeromonas hydrophila biofilm (嗜水气单胞菌生物膜); assay: Biofilm inhibition test (crystal violet); format: cell-based, Aeromonas hydrophila AH08; details: for inhibition at 128 µg/mL: Aeromonas hydrophila, 128 μg/ml, 30 °C, read-out: inhibition rate of biofilm
[8] = tested on: AI-2 of Aeromonas hydrophila (AI-2); assay: AI-2 bioluminescence assay with V. harveyi BB170 reporter; format: cell-based, Aeromonas hydrophila AH08; details: compared with control (no EGCG); 16-256 μg/mL
[9] = tested on: Aeromonas hydrophila (嗜水气单胞菌); format: in vivo, Aeromonas hydrophila AH08; zebrafish; details: for reduction of bacterial adhesion CFU: compared with model group
[10] = tested on: Aeromonas hydrophila (嗜水气单胞菌); assay: Histopathology of infected zebrafish (gill, muscle, liver; H&E); format: in vivo, Aeromonas hydrophila AH08; zebrafish
[11] = tested on: virulence factor and QS genes of Aeromonas hydrophila (嗜水气单胞菌毒力因子及QS基因); assay: qRT-PCR of quorum sensing and virulence genes; format: cell-based, Aeromonas hydrophila AH08; details: normalised to rpob
[12] = read-out: inhibition rate of swarming
[13] = read-out: inhibition rate of swimming

O=C(O[C@@H]1Cc2c(O)cc(O)cc2O[C@@H]1c1cc(O)c(O)c(O)c1)c1cc(O)c(O)c(O)c1 [EGCG, 表没食子儿茶素-3-没食子酸酯]
inhibition at 128 µg/mL [1, 12]: 29.7%
inhibition at 256 µg/mL [1, 12]: 33%
inhibition at 64 µg/mL [1, 13]: 16%
inhibition at 128 µg/mL [1, 13]: 28.3%
inhibition at 256 µg/mL [1, 13]: 66%
time of death of the first zebrafish ([2]; 50 mg/kg): 18 h
time of death of the first zebrafish ([2]; 100 mg/kg): 48 h
survival rate ([2]; high dose group (100 mg/kg), 48 h after infection): 88.9%
survival rate (in words) ([2]; low dose group (10 mg/kg), 48 h after infection, compared with model group): 与模型组的生存率相同
survival rate ([2]; medium dose group (50 mg/kg), 48 h after infection): 88.9%
inhibition of growth after 12 h (growth curve) ([3]; 0-256 μg/mL, 30 °C, after 12 h): 没有明显的抑制作用
effect on lag phase (growth curve) ([3]; 0-256 μg/mL, 30 °C, od600nm): 增加了细菌的滞后期; also recorded: 延缓了嗜水气单胞菌进入对数生长期的时间
bactericidal effect ([3]; 64-256 μg/ml, compared with control without EGCG): 不直接产生杀菌作用
effect on growth after 24 h ([3]; sub-MIC, after 24 h): 没有明显影响
MBC ([4]; Aeromonas hydrophila, TSB agar): 4100 µg/mL (≈ 8940 µM)
MIC ([4]; Aeromonas hydrophila, read-out: MIC): 1020 µg/mL (≈ 2230 µM)
MIC [4]: 1024 µg/mL (≈ 2230 µM)
inhibition of motility (in words) [5]: 显著抑制嗜水气单胞菌的运动性,且呈浓度依赖性
expression of IL-1β [6]: 显著抑制
expression of IL-6 [6]: 显著抑制
expression of IL-8 [6]: 显著抑制
expression of TNF-α [6]: 显著抑制
inhibition of biofilm formation (in words) ([7]; 16-256 μg/mL): 显著抑制
concentration dependence of biofilm inhibition ([7]; 24 h): 呈浓度依赖性
inhibition at 128 µg/mL ([7]; 24 h): 38.3%
inhibition at 128 µg/mL ([7]; 48 h): 26.6%
AI-2 secreted by A. hydrophila [8]: 明显减少,并呈浓度依赖性
reduction of bacterial adhesion CFU ([9]; 10 mg/kg): 21.22%
reduction of bacterial adhesion CFU ([9]; 50 mg/kg): 33.47%
reduction of bacterial adhesion CFU ([9]; 100 mg/kg): 38.00%
adhesion of A. hydrophila to zebrafish (in words) ([9]; after EGCG treatment): 显著降低
bacterial load of zebrafish (in words) ([9]; after EGCG treatment): 显著降低
protection of tissues of infected zebrafish ([10]; dose-dependent): 显著的保护作用
pathological damage caused by A. hydrophila ([10]; liver, muscle and gill of infected zebrafish): 明显改善
inflammatory cell infiltration ([10]; zebrafish liver, muscle and gill): 显著减少
expression of LuxR ([11]; AI-1 related gene): 不影响
expression of ahyI ([11]; AI-1 related gene): 显著抑制
expression of ahyR ([11]; AI-1 related gene): 显著抑制
expression of LuxS ([11]; AI-2 synthase): 显著抑制
expression of QseB ([11]; AI-3 related gene): 显著抑制
expression of ahyB ([11]; elastase gene): 显著下调
expression of flgL ([11]; flagellar gene): 显著下调
expression of ahh1 ([11]; hemolysin gene): 显著下调
expression of hly ([11]; hemolysin gene): 显著下调
